Assay results published in ChEMBL document CHEMBL3885881, “DrugMatrix”.

Species on record: Rattus norvegicus
Experiment: DrugMatrix - Regimen: Daily Repeat
Type: toxicity, organism-based, Sprague-Dawley
Parameters: regimen Daily Repeat, gender Male, age 6-8 weeks
Conditions: in vivo, po, route oral GAVAGE, […]; for ABSOLUTE BASOPHIL / ABSOLUTE EOSINOPHIL / ABSOLUTE LYMPHOCYTE / ABSOLUTE MONOCYTE / ABSOLUTE SEGMENTED NEUTROPHIL / BASOPHIL / EOSINOPHIL / ERYTHROCYTE COUNT / HEMATOCRIT / HEMOGLOBIN / LEUKOCYTE COUNT / LYMPHOCYTE / MEAN CORPUSCULAR HEMOGLOBIN / MEAN CORPUSCULAR HEMOGLOBIN CONCENTRATION / MEAN CORPUSCULAR VOLUME / MONOCYTE / NEUTROPHIL / NUCLEATED RED BLOOD CELLS / PLATELET COUNT: tissue Blood; for ALANINE AMINOTRANSFERASE / ALBUMIN / ALKALINE PHOSPHATASE / ASPARTATE AMINOTRANSFERASE / BLOOD UREA NITROGEN / CARBON DIOXIDE / CHLORIDE / CHOLESTEROL / CREATINE PHOSPHOKINASE / CREATININE / GLUCOSE / LACTATE DEHYDROGENASE / LIPASE / PHOSPHORUS / SODIUM / TOTAL BILIRUBIN / TOTAL PROTEIN / URIC ACID: tissue Plasma
[1] = 0 mg/kg, 72 h, dose level Control, time 3 day
[2] = 0 mg/kg, 120 h, dose level Control, time 5 day
[3] = 450 mg/kg, 72 h, dose level Low, time 3 day

CC[C@H](C)C(=O)O[C@H]1C[C@@H](C)C=C2C=C[C@H](C)[C@H](CC[C@@H]3C[C@@H](O)CC(=O)O3)[C@H]21 [LOVASTATIN]
ABSOLUTE BASOPHIL [1]: 0 CELLS/uL | ABSOLUTE EOSINOPHIL [1]: 52.33 CELLS/uL | ABSOLUTE LYMPHOCYTE [1]: 9105.33 CELLS/uL | ABSOLUTE MONOCYTE [1]: 155.67 CELLS/uL | ABSOLUTE SEGMENTED NEUTROPHIL [1]: 1020 CELLS/uL | BASOPHIL [1]: 0% | EOSINOPHIL [1]: 0.33% | ERYTHROCYTE COUNT [1]: 5.03 x10E6/uL | HEMATOCRIT [1]: 31.63% | HEMOGLOBIN [1]: 12.37 G/DL | LEUKOCYTE COUNT [1]: 10.33 x10E3/uL | LYMPHOCYTE [1]: 87% | MEAN CORPUSCULAR HEMOGLOBIN [1]: 24.57 pg | MEAN CORPUSCULAR HEMOGLOBIN CONCENTRATION [1]: 39.07 G/DL | MEAN CORPUSCULAR VOLUME [1]: 62.93 fL | MONOCYTE [1]: 1.33% | NEUTROPHIL [1]: 11.33% | NUCLEATED RED BLOOD CELLS [1]: 0 /100WBC | PLATELET COUNT [1]: 896 x10E3/uL | ALANINE AMINOTRANSFERASE [1]: 75.33 u/L | ALBUMIN [1]: 3.77 G/DL | ALKALINE PHOSPHATASE [1]: 378.67 u/L | ASPARTATE AMINOTRANSFERASE [1]: 101.33 u/L | BLOOD UREA NITROGEN [1]: 11.33 mg/dL | CARBON DIOXIDE [1]: 25 mmol/L | CHLORIDE [1]: 99 MEQ/L | CHOLESTEROL [1]: 66 mg/dL | CREATINE PHOSPHOKINASE [1]: 277 u/L | CREATININE [1]: 0.33 mg/dL | GLUCOSE [1]: 198.33 mg/dL | LACTATE DEHYDROGENASE [1]: 140.33 u/L | LIPASE [1]: 11.33 u/L | PHOSPHORUS [1]: 11.83 mg/dL | SODIUM [1]: 141.03 MEQ/L | TOTAL BILIRUBIN [1]: 0.2 mg/dL | TOTAL PROTEIN [1]: 5.47 G/DL | URIC ACID [1]: 0.93 mg/dL | ABSOLUTE BASOPHIL [2]: 0 CELLS/uL | ABSOLUTE EOSINOPHIL [2]: 0 CELLS/uL | ABSOLUTE LYMPHOCYTE [2]: 8734 CELLS/uL | ABSOLUTE MONOCYTE [2]: 98.67 CELLS/uL | ABSOLUTE SEGMENTED NEUTROPHIL [2]: 1034 CELLS/uL | BASOPHIL [2]: 0% | EOSINOPHIL [2]: 0% | ERYTHROCYTE COUNT [2]: 5.19 x10E6/uL | HEMATOCRIT [2]: 33.2% | HEMOGLOBIN [2]: 12.93 G/DL | LEUKOCYTE COUNT [2]: 9.87 x10E3/uL | LYMPHOCYTE [2]: 87% | MEAN CORPUSCULAR HEMOGLOBIN [2]: 25 pg | MEAN CORPUSCULAR HEMOGLOBIN CONCENTRATION [2]: 39.03 G/DL | MEAN CORPUSCULAR VOLUME [2]: 63.93 fL | MONOCYTE [2]: 1% | NEUTROPHIL [2]: 12% | NUCLEATED RED BLOOD CELLS [2]: 0 /100WBC | PLATELET COUNT [2]: 1190 x10E3/uL | ALANINE AMINOTRANSFERASE [2]: 75.67 u/L | ALBUMIN [2]: 4 G/DL | ALKALINE PHOSPHATASE [2]: 384.33 u/L | ASPARTATE AMINOTRANSFERASE [2]: 89.67 u/L | BLOOD UREA NITROGEN [2]: 13 mg/dL | CARBON DIOXIDE [2]: 32.67 mmol/L | CHLORIDE [2]: 103 MEQ/L | CHOLESTEROL [2]: 79.67 mg/dL | CREATINE PHOSPHOKINASE [2]: 199.33 u/L | CREATININE [2]: 0.29 mg/dL | GLUCOSE [2]: 161.33 mg/dL | LACTATE DEHYDROGENASE [2]: 92.33 u/L | LIPASE [2]: 11.67 u/L | PHOSPHORUS [2]: 10.8 mg/dL | SODIUM [2]: 145.3 MEQ/L | TOTAL BILIRUBIN [2]: 0.17 mg/dL | TOTAL PROTEIN [2]: 5.7 G/DL | URIC ACID [2]: 0.63 mg/dL | ABSOLUTE BASOPHIL [3]: 0 CELLS/uL | ABSOLUTE EOSINOPHIL [3]: 0 CELLS/uL | ABSOLUTE LYMPHOCYTE [3]: 6372 CELLS/uL | ABSOLUTE MONOCYTE [3]: 86.67 CELLS/uL | ABSOLUTE SEGMENTED NEUTROPHIL [3]: 1174.67 CELLS/uL | BASOPHIL [3]: 0% | EOSINOPHIL [3]: 0% | ERYTHROCYTE COUNT [3]: 5.39 x10E6/uL | HEMATOCRIT [3]: 33.63% | HEMOGLOBIN [3]: 13.47 G/DL | LEUKOCYTE COUNT [3]: 7.63 x10E3/uL | LYMPHOCYTE [3]: 82.67% | MEAN CORPUSCULAR HEMOGLOBIN [3]: 25 pg | MEAN CORPUSCULAR HEMOGLOBIN CONCENTRATION [3]: 40.07 G/DL | MEAN CORPUSCULAR VOLUME [3]: 62.43 fL | MONOCYTE [3]: 1.33% | NEUTROPHIL [3]: 16% | NUCLEATED RED BLOOD CELLS [3]: 0 /100WBC | PLATELET COUNT [3]: 1202.67 x10E3/uL | ALANINE AMINOTRANSFERASE [3]: 138.33 u/L | ALBUMIN [3]: 4.13 G/DL | ALKALINE PHOSPHATASE [3]: 450.67 u/L | ASPARTATE AMINOTRANSFERASE [3]: 224.33 u/L | BLOOD UREA NITROGEN [3]: 11 mg/dL | CARBON DIOXIDE [3]: 27.67 mmol/L | CHLORIDE [3]: 97.33 MEQ/L | CHOLESTEROL [3]: 35 mg/dL | CREATINE PHOSPHOKINASE [3]: 505 u/L | CREATININE [3]: 0.16 mg/dL | GLUCOSE [3]: 146 mg/dL | LACTATE DEHYDROGENASE [3]: 223.33 u/L | LIPASE [3]: 10.67 u/L | PHOSPHORUS [3]: 10.17 mg/dL | SODIUM [3]: 140.53 MEQ/L | TOTAL BILIRUBIN [3]: 0.1 mg/dL | TOTAL PROTEIN [3]: 5.37 G/DL | URIC ACID [3]: 0.5 mg/dL
